This is an account of results in ChEMBL document CHEMBL3862033 (J Med Chem, 2016).

Bounds are passed on as bounds.

In one data set the target is Cytochrome P450 1A2 (Homo sapiens, UniProt P05177). The data set can be described thus: Inhibition of CYP1A2 (unknown origin). Format: ADME.
For another data set, the target named is Cytochrome P450 2C19 (Homo sapiens, UniProt P33261). The data set can be described thus: Inhibition of CYP2C19 (unknown origin). Format: ADME.
For a further data set, the target named is Cytochrome P450 2D6 (Homo sapiens, UniProt P10635). The data set can be described thus: Inhibition of CYP2D6 (unknown origin). In kind it is ADME.
Chain of Cytochrome P450 2D6 (P10635 whole entry): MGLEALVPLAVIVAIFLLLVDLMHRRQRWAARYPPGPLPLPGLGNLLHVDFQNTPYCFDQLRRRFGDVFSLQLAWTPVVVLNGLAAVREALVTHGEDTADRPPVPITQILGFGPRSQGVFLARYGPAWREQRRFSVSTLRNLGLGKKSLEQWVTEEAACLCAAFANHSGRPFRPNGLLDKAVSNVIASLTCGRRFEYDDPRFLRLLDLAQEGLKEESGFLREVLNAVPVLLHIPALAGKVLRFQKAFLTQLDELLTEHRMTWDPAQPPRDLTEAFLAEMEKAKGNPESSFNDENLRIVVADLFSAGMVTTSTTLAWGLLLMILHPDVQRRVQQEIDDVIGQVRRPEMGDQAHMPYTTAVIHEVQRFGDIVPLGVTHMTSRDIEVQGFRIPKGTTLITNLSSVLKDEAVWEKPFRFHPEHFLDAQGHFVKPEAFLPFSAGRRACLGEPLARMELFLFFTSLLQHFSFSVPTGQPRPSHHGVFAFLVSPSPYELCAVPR
In a further data set the target is Cytochrome P450 3A4 (Homo sapiens, UniProt P08684). The data set can be described thus: Inhibition of CYP3A4 (unknown origin). Format: ADME.
Chain of Cytochrome P450 3A4 (P08684 whole entry): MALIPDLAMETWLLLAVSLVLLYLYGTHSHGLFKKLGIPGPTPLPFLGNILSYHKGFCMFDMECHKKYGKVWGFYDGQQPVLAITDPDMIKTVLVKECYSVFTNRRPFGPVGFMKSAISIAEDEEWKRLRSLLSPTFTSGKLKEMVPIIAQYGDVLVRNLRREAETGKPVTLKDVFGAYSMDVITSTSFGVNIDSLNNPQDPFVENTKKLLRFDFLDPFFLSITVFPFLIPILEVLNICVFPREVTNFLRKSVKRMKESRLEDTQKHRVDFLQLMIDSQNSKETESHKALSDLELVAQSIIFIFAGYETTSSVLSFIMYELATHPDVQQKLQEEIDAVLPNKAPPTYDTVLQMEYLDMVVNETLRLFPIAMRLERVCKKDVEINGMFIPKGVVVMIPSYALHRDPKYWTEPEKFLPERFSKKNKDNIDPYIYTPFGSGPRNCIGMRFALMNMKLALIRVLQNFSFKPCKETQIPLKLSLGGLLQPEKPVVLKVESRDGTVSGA
The target of a further data set is Adenosine receptor A2a (Homo sapiens, UniProt P29274). In words: Displacement of [3 H]2-[p-(2-carboxyethyl)phenyl-ethylamino]-5'-N-ethylcarboxamidoadenosine from recombinant human adenosine receptor A2A expressed in HEK293 cell membranes at 10 uM after 60 mins by liquid scintillation counting method relative to control.
Chain of Adenosine receptor A2a (P29274 whole entry): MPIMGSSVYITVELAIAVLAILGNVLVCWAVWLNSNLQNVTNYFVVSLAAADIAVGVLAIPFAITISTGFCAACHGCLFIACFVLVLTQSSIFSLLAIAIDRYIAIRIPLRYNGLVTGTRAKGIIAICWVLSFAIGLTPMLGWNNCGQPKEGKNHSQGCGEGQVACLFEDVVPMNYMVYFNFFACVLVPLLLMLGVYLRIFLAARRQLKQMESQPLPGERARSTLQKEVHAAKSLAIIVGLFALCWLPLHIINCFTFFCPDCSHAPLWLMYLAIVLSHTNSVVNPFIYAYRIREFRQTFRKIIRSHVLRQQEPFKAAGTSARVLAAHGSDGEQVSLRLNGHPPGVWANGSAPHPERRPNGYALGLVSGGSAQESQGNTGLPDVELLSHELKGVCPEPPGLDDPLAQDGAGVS
Data set [1] can be described thus: Stability of compound in pH 6.5 fasted state simulated intestinal fluid assessed as compound remaining measured after 2 hrs. Format: ADME. To be noted: simulated gi fluid, pH 6.5, 2 h.
The target in data set [2] is Sodium-dependent dopamine transporter (Homo sapiens, UniProt Q01959). The data set can be described thus: Inhibition of human dopamine transporter expressed in HEK293 cells assessed as inhibition of dopamine uptake measured after 30 mins by fluorescence analysis. In kind it is cell-based.
Chain of Sodium-dependent dopamine transporter (Q01959 whole entry): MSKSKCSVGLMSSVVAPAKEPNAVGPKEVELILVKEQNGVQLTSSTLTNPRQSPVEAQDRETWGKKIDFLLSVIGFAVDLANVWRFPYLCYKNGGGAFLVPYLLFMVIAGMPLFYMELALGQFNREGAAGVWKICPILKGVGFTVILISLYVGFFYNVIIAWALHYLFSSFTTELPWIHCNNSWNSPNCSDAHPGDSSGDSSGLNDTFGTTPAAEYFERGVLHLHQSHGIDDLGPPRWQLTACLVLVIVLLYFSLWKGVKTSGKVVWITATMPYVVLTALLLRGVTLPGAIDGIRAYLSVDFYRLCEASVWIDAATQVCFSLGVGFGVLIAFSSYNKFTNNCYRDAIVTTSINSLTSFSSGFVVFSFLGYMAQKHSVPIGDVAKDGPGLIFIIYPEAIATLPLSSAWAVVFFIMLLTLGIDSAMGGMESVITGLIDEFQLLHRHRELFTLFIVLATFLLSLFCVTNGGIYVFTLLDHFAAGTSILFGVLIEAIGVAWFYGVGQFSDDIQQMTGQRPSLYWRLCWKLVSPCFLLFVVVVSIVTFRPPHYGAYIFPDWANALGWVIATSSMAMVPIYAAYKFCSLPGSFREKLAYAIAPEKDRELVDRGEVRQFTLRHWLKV
For data set [3], the target named is T1, 5-hydroxytryptamine receptor 2A (Homo sapiens, UniProt P28223). The data set can be described thus: Antagonist activity at human 5-HT2AR expressed in Flp-In HEK cells assessed as inhibition of serotonin induced calcium mobilization at 10 uM preincubated for 5 to 10 mins followed by serotonin addition by Fluo-4 dye based FLIPR assay relative to control. Particulars: HEK293. In kind it is functional, cell-based. A general note: Calcium flux is commonly read through the fluorescence of an indicator in the cells.
T1 sequence (P28223 whole entry): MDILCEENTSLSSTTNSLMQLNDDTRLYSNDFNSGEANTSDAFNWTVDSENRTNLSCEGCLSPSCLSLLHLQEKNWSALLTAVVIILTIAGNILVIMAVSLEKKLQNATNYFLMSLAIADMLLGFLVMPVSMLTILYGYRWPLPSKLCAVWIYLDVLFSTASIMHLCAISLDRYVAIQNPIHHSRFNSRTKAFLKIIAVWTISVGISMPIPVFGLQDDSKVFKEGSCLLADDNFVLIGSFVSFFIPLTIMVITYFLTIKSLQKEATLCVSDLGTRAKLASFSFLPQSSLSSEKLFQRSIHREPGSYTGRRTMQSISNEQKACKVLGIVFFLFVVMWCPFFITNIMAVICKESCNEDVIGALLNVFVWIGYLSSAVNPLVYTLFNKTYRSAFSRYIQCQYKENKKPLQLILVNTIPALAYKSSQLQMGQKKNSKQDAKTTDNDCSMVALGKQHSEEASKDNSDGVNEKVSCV

The target of data set [4] is T1, 5-hydroxytryptamine receptor 2A. In words: Agonist activity at human 5-HT2AR expressed in Flp-In HEK cells assessed as calcium mobilization at 10 uM measured for 2 mins by Fluo-4 dye based FLIPR assay. Format: cell-based. Particulars: hek293, 2 min.

Chain of Cytochrome P450 2C19 (P33261 whole entry): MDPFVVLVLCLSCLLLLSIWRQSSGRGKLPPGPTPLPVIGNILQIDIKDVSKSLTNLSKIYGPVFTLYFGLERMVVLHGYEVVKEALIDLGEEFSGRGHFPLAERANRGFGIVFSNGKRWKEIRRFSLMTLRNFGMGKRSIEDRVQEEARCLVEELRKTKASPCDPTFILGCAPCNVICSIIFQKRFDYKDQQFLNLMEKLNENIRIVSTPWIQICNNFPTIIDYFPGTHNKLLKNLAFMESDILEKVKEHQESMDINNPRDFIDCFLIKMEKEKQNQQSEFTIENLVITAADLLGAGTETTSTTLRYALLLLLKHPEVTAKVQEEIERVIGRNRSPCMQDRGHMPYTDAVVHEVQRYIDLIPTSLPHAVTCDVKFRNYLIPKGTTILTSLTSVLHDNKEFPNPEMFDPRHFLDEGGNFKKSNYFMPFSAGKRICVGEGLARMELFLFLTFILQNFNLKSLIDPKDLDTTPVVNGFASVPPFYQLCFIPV
Chain of Cytochrome P450 1A2 (P05177 whole entry): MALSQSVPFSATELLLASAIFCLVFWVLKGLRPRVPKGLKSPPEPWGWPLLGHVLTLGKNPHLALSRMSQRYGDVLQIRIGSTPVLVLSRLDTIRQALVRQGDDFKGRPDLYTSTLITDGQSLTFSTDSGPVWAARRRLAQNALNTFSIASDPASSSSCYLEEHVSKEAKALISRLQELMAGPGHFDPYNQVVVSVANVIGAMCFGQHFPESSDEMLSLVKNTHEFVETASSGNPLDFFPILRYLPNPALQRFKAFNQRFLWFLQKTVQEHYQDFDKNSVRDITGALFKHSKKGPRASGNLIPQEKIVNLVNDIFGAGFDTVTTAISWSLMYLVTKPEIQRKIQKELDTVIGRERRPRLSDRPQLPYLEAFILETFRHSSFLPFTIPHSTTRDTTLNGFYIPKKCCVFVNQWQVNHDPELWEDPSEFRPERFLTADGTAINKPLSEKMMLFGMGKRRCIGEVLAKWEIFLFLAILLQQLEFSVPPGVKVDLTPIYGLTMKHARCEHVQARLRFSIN

What is called IC50 is the point on the concentration scale where inhibition reaches its midpoint. As for `CNC(=O)[C@@]12C[C@@H]1[C@@H](n1cnc3c(NC(C4CC4)C4CC4)nc(Cl)nc31)[C@H](O)[C@@H]2O`, the IC50 against Cytochrome P450 1A2, at Cytochrome P450 2C19, against Cytochrome P450 2D6 and on Cytochrome P450 3A4 was > 30 µM in each case.
For orientation: inhibition means how much of the control response was suppressed. In the case of `COC(=O)[C@@]12C[C@@H]1[C@@H](n1cnc3c(NC(C4CC4)C4CC4)nc(Cl)nc31)[C@H](O)[C@@H]2O`, the inhibition at Adenosine receptor A2a is 33%. In addition, the Stability in data set [1] is recorded as 97%.
One may read the Ki as a dissociation constant, usually derived from enzyme kinetics or from competition with a known ligand. As for `OC[C@@]12C[C@@H]1[C@@H](n1cnc3c(NC(C4CC4)C4CC4)nc(Cl)nc31)[C@H](O)[C@@H]2O`, in data set [2], the inhibition constant Ki was 4.8 µM.
For the compound `CCOC(=O)[C@@]12C[C@@H]1[C@@H](n1cnc3c(NC(C4CC4)C4CC4)nc(Cl)nc31)[C@H](O)[C@@H]2O`, the inhibition in data set [3] is > 10%. Further, in data set [4], the Activity is > 10%.
